Source: patent US4386094A, “4-Lower alkyl-3-phenoxypyridine-1-oxide and a method for its production” (priority 1980, dated 1983)
Where two headings read alike, the source gives them in different places.

Legend:
[1] = tested on: Pentylenetetrazol (Metrazol) seizure; assay: sc Met--Subcutaneous Pentylenetetrazol (Metrazol) Seizure Threshold Test, mice; format: in vivo, male Carworth Farms No. 1 mice; conditions: for ED50 sc Met: intraperitoneal
Procedure: (§1) The utility of the aforementioned compound as an anticonvulsant is determined by generating a compound profile using three tests. The tests employed are described in Epilepsia 19 (1978) 409-428 which is incorporated by reference.
The tests were performed by the National Institute of Neurological and Communicative Disorders and Stroke and used male Carworth Farms No. 1 mice. The compounds are employed at at least 3 dose levels (30, 100, 300 mg/kg) in the following three tests.
sc Met--Subcutaneous Pentylenetetrazol (Metrazol®) Seizure Threshold Test
(§2) The animal is observed for 30 minutes. Failure to observe even a threshold seizure (a single episode of clonic spasms of at least 5 sec duration) is defined as protection and the results are expressed as: […]
(§3) number of animals protected/number of animals tested.

[2] = tested on: Maximal electroshock seizures; assay: MES--Maximal Electroshock Seizure Test, mice; format: in vivo, male Carworth Farms No. 1 mice; conditions: Mus musculus
Source text: Maximal electroshock seizures are elicited with a 60 cycle alternating current of 50 mA intensity (5-7 times that necessary to elicit minimal electroshock seizures) delivered for 0.2 sec via corneal electrodes. A drop of 0.9% saline is instilled in the eye prior to application of the electrodes in order to prevent the death of the animal. Abolition of the hind limb tonic extension component of the seizure is defined as protection and results are expressed as:

[3] = tested on: Pentylenetetrazol (Metrazol) seizure; assay: sc Met--Subcutaneous Pentylenetetrazol (Metrazol) Seizure Threshold Test, rats; format: in vivo; conditions: oral
Procedure: as §1, §2, §3

[4] = Rotorod toxicity test (Tox), mice; format: in vivo, male Carworth Farms No. 1 mice
Procedure: The Rotorod test is used to evaluate neurotoxicity. The animal is placed on a 1 inch diameter knurled plastic rod rotating at 6 rpm. Normal mice can remain on a rod rotating at this speed indefinitely. Neurologic toxicity is defined as the failure of the animal to remain on the rod for 1 minute, and is expressed as:

Picrotoxin = Picrotoxin test, mice; format: in vivo; conditions: intraperitoneal
Strychnine = Strychnine test, mice; format: in vivo; conditions: intraperitoneal
[5] = tested on: Maximal electroshock seizures; assay: MES--Maximal Electroshock Seizure Test, rats; format: in vivo; conditions: Rattus norvegicus, oral
Procedure: The utility of the aforementioned compound as an anticonvulsant is determined by generating a compound profile using three tests. The tests employed are described in Epilepsia 19 (1978) 409-428 which is incorporated by reference. Maximal electroshock seizures are elicited with a 60 cycle alternating current of 50 mA intensity (5-7 times that necessary to elicit minimal electroshock seizures) delivered for 0.2 sec via corneal electrodes. A drop of 0.9% saline is instilled in the eye prior to application of the electrodes in order to […]. Abolition of the hind limb tonic extension component of the seizure is defined as protection and results are expressed as: number of animals protected/number of animals tested.

Bicuculline = Bicuculline test, mice; format: in vivo
[6] = Rotorod toxicity test (Tox), rats; format: in vivo; conditions: for TD50: rat, in vivo, po
[7] = mouse, in vivo, po; cited from earlier work
[8] = rat, in vivo, po; cited from earlier work

Compound | ED50 sc Met [1] | sc Met-ED50 ([1]; oral) | ED50 ([2]; oral, read-out: MES-ED50) [mg/kg] | sc Met-ED50 [3] | ED50 Picrotoxin (Picrotoxin) | ED50 [5] [mg/kg] | ED50 Bicuculline (Bicuculline; intraperitoneal, mice) | TD50 [6] [mg/kg] | further results
Cc1cc[n+]([O-])cc1Oc1ccccc1 [4-METHYL-3-PHENOXYPYRIDINE-1-OXIDE, 4-methyl-3-phenoxypyridine-1-oxide] | Potentiates | Potentiates | 85.3 | Potentiates | Potentiates | 11.2 | Potentiates | 76.1 | ED50 ([2]; ip, intraperitoneal, read-out: ED50 MES): 23.2 mg/kg; TD50 ([4]; mouse, in vivo, ip): 76.2 mg/kg; TD50 ([4]; mouse, in vivo, po): 296 mg/kg; ED50 Strychnine (Strychnine): Ineffective
NC(=O)N1c2ccccc2C=Cc2ccccc21 [CARBAMAZEPINE] | Potentiates | – | – | Variable | – | 8.5 | – | – | Max. Prot. (Bicuculline) (Bicuculline; intraperitoneal, mice, at 50-130 mg/kg): 62.5%; ROTOROD TD50 ([6]; oral, rats): 813.06 mg/kg
CCC1(c2ccccc2)NC(=O)N(C)C1=O (stereo not drawn) [MEPHENYTOIN] | – | – | 37 | – | – | 10 | – | – | ROTOROD TD50 [7]: 97.0 mg/kg; ED50 ([1]; Mus musculus, oral): 53 mg/kg; ROTOROD TD50 [8]: 143 mg/kg; ED50 ([3]; Rattus norvegicus): 105 mg/kg; TD50 ([4]; intraperitoneal, mice): 153.82 mg/kg; Max. Prot. (Strychnine) (Strychnine; at 70-150 mg/kg): 50%; ED50 (Bicuculline; Mus musculus, ip, read-out: ED50 Bicuculline): 124 mg/kg
O=C1NC(=O)C(c2ccccc2)(c2ccccc2)N1 [PHENYTOIN] | Potentiates | Ineffective | – | Ineffective | Potentiates | – | Potentiates | > 3000 | Max. Prot. (Strychnine) (Strychnine; at 55-100 mg/kg): 50%
